This is an account of results in ChEMBL document CHEMBL1201862, “PubChem BioAssay data set” (2004).

Assay in all cases: NCI-60 cell line screen, 48 h
The subject of assay [1] is UACC-62.
Assay [2] concerns SW-620.
Assay [3] concerns CAKI-1.
Assay [4] concerns RPMI-8226.
Assay [5] relates to SNB-75.
For assay [6], the system named is HCT-15.
Assay [7] relates to SR.
Assay [8] deals with CCRF-CEM.
Assay [9] deals with DU-145.
For assay [10], the system named is UACC-257.
In assay [11] the test system is NCI-H226.
Assay [12] deals with NCI/ADR-RES.
The test system of assay [13] is MDA-N.
The test system of assay [14] is SK-OV-3.
Assay [15] deals with SN12C.
Assay [16] has as its system OVCAR-5.
Assay [17] concerns A549.
For assay [18], the system named is MDA-MB-231.
Assay [19] deals with M14.
The test system of assay [20] is SK-MEL-28.

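Dose response: 5 concentrations. Exposure: 48 h. Format: 96-well plates. Endpoint: linear interpolation; highest concentration if not reached. The concentration for 50% growth inhibition is given as GI50.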 Calls of active or inactive are those of the source. Cut-off read from the data, not from the text of the source: active = GI50 up to about 1.1 µM and inactive = higher.

With `CCCCc1ccc(Nc2nc(S)c3ncn(COCCO)c3n2)cc1`, the GI50 in assay [1] is 41.4 µM (inactive); in [2], 69 µM (inactive); in [3] it was > 100 µM (inactive); in assay [4], 21.3 µM (inactive); in assay [5], 41 µM (inactive); in assay [6] it was > 100 µM. Also, the GI50 in assay [7] is 24 µM (inactive); in assay [8], 25.7 µM (inactive); in assay [9] it was 56.9 µM (inactive); in [10], 30.4 µM (inactive); in [11], 88.7 µM (inactive); in assay [12] it was > 100 µM (inactive). In addition, the GI50 is 41.9 µM (inactive) in assay [13]; > 100 µM (inactive) in assay [14]; 39.7 µM (inactive) in assay [15]; 86.5 µM (inactive) in [16]; > 100 µM (inactive) in assay [17]; 15.4 µM (inactive) in assay [18]. For the same compound, in assay [19], the GI50 is 44.4 µM (inactive).

`COc1ccc(N2C(=O)C3c4[nH]c5ccccc5c4C4CCCCCCCC4C3C2=O)cc1` (stereo not given): the GI50 was > 10 µM (inactive) in assay [1]; > 10 µM (inactive) in [2]; > 10 µM (inactive) in [3]; > 10 µM (inactive) in assay [4]; 5.22 µM (inactive) in assay [5]; > 10 µM in [6]. For the same compound, the GI50 was > 10 µM (inactive) in [7]; 2.07 µM (inactive) in assay [8]; > 10 µM (inactive) in [9]; > 10 µM (inactive) in assay [11]; > 10 µM (inactive) in assay [12]; > 10 µM (inactive) in assay [13]. Besides, the GI50 in assay [14], in assay [15], in assay [16], in assay [17], in [20] and in assay [18] was > 10 µM (inactive) throughout. Also, the GI50 in assay [19] was > 10 µM (inactive).

In the case of `COc1cc(CNC(=O)CCCCCCCC/C=C/Br)ccc1O`, the GI50 in assay [1] is > 10 µM (inactive); in assay [2], > 10 µM (inactive); in assay [3], > 10 µM (inactive); in [4], > 10 µM (inactive); in assay [5], > 10 µM (inactive); in [6], > 10 µM. For the same compound, the GI50 in assay [7], in assay [8], in assay [9], in [10], in [11] and in assay [12] was > 10 µM (inactive) in each case. Also, the GI50 in [13], in assay [14], in [15], in [17], in assay [20] and in [18] was > 10 µM (inactive) throughout. In addition, the GI50 in assay [19] was > 10 µM (inactive).

Regarding `O=C1CC(O)c2cscc21` (stereo not given), the GI50 in assay [1] was > 100 µM (inactive); in [2], 37.8 µM (inactive); in [3], > 100 µM (inactive); in [4], 35.3 µM (inactive); in assay [5], > 100 µM (inactive); in assay [6] it was > 100 µM. For the same compound, the GI50 was 29.5 µM (inactive) in assay [7]; 21.6 µM (inactive) in [8]; > 100 µM (inactive) in assay [9]; > 100 µM (inactive) in assay [10]; > 100 µM (inactive) in assay [11]; > 100 µM (inactive) in assay [12]. The GI50 in [13], in assay [14], in assay [15], in [16], in assay [20] and in [18] was > 100 µM (inactive) in each case.

For the compound `c1ccc(COC2C3COC(O3)C(OCc3ccccc3)C2OCc2ccccc2)cc1` (stereo not given), the GI50 was > 100 µM (inactive) in assay [1]; 40.1 µM (inactive) in assay [2]; > 100 µM (inactive) in assay [3]; 12.2 µM (inactive) in assay [4]; 22.8 µM (inactive) in assay [5]; 34 µM in assay [6]. For the same compound, the GI50 in assay [7] was 4.84 µM (inactive); in [8], 11.2 µM (inactive); in assay [9], 78.5 µM (inactive); in assay [10] it was 71.1 µM (inactive); in assay [11], 60.7 µM (inactive); in [12], 32.1 µM (inactive). Further, the GI50 in assay [13] was 63.7 µM (inactive); in assay [14], > 100 µM (inactive); in [15], 13.6 µM (inactive); in [16] it was 69.5 µM (inactive); in [18] it was > 100 µM (inactive); in [19] it was 32.2 µM (inactive).

Take `COC(=O)c1ccc2c(c1)CC1(C2)Cc2ccccc2C1=O` (stereo not given): the GI50 is 32.7 µM (inactive) in assay [2]; 34.7 µM (inactive) in assay [3]; 13.4 µM (inactive) in assay [4]; 24.3 µM (inactive) in assay [5]; 36.2 µM in assay [6]; 22.2 µM (inactive) in assay [7]. Further, the GI50 was 19.9 µM (inactive) in [8]; 36.3 µM (inactive) in assay [9]; 15.1 µM (inactive) in assay [10]; 15.1 µM (inactive) in assay [11]; 27.6 µM (inactive) in [12]; 27.7 µM (inactive) in [13]. Also, the GI50 in assay [14] is 68.4 µM (inactive); in assay [15], 25.9 µM (inactive); in [16], 72.3 µM (inactive); in [17], 53.1 µM (inactive); in assay [20], 14.8 µM (inactive); in [18], 22.7 µM (inactive). Further, the GI50 in assay [19] is 18.7 µM (inactive).

Take `O=C1/C(=C\c2cccc(Oc3ccccc3)c2)S(=O)(=O)C(c2ccccc2)N1c1cc(Cl)ccc1Cl` (stereo not given): the GI50 in assay [1] was 15.2 µM (inactive); in assay [2] it was 3.83 µM (inactive); in assay [3], 24.7 µM (inactive); in assay [4], 5.94 µM (inactive); in assay [5], 23.9 µM (inactive); in [6], 21 µM. Also, the GI50 in assay [7] is 6.31 µM (inactive); in assay [8] it was 3.05 µM (inactive); in assay [9], 20.9 µM (inactive); in assay [10], 19.9 µM (inactive); in assay [12], 22.6 µM (inactive); in assay [13], 10.3 µM (inactive). Also, the GI50 is 39.4 µM (inactive) in assay [14]; 16.9 µM (inactive) in [15]; 20.4 µM (inactive) in assay [16]; 22.2 µM (inactive) in assay [17]; 17.3 µM (inactive) in assay [20]; 28.7 µM (inactive) in assay [18]. The GI50 in assay [19] is 16.5 µM (inactive).

Turning to `N#C[BH2-][n+]1cn(C2CC(OP(=O)(O)OCC3OC(n4ccc(N)nc4=O)CC3O)C(CO)O2)c2nc(N)[nH]c(=O)c21` (stereo not given), the GI50 in assay [1] is > 100 µM (inactive); in assay [2], > 100 µM (inactive); in assay [3], > 100 µM (inactive); in assay [4], > 100 µM (inactive); in [5] it was > 100 µM (inactive); in [6] it was > 100 µM. Besides, the GI50 in [7], in [8], in [9], in assay [10], in assay [11] and in [12] was > 100 µM (inactive) each time. Also, the GI50 in assay [13], in [14], in assay [15], in assay [16], in [17] and in assay [20] was > 100 µM (inactive) in each case. For the same compound, the GI50 in assay [18] was > 100 µM (inactive).
